In patent publication US11098061B2 (Celgene CAR LLC, priority 2013, dated 2021):

Experiments:
MK2 [1] = biological target: T1, MK2 (Homo sapiens (Human), UniProt P49137); test: MK2 cellular assay (Hsp27 phosphorylation in Thp-1 cells); format: cell-based; details: differentiated Thp-1 cells, compound 1 hour, 50 ng/ml LPS 15 minutes, phosphorylation of Hsp27; read-out: MK2EC50
In short: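 PMA-differentiated (10 ng/ml, 2 days) human Thp-1 monocytic cells given compound for 1 h, washed, then stimulated with 50 ng/ml LPS for 15 min. Hsp27 phosphorylation measured by western blot of lysates (20 μg protein); EC50 from dose-response inhibition.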

[2] = biological target: p38a activated, mitogen-activated protein kinase-activated protein kinase 2 (MAPKAP-K2 or MK-2) enzyme (Homo sapiens (Human), UniProt P49137); test: MK2 Omnia continuous-read kinase assay for compound potency; format: biochemical; details: [MK-2]=0.4 nM, [ATP]=1.0 mM, [ST3-Sox]=10 μM
Sequence of p38a activated, mitogen-activated protein kinase-activated protein kinase 2 (MAPKAP-K2 or MK-2) enzyme (P49137 whole entry): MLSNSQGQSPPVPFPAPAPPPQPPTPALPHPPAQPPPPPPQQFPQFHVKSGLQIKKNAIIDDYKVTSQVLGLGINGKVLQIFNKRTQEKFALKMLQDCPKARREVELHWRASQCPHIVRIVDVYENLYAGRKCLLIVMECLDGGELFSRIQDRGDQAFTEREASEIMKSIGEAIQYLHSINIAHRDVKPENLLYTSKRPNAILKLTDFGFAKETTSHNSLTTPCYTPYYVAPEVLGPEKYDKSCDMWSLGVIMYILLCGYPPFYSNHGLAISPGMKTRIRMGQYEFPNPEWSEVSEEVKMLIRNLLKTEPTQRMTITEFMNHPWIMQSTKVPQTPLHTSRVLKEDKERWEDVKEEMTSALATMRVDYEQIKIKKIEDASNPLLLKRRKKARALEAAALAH
In short: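 Continuous Omnia fluorescence read (λex360/λem485) every 71 s after starting with 0.4 nM MK-2, with 1.0 mM ATP (appKM 8-10 μM) and 10 μM ST3-Sox substrate.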

TNFα release [3] = test: PO mouse PD experiment (TNFα release after LPS); format: in vivo; details: CD-1 male mice, 30 mg/kg PO, 1 hour prior to LPS, read-out: % Inhibition of TNFa
Method: CD-1 male mice, approximately 5 weeks old were acquired from Charles River Laboratories. Animals were housed in ventilated cages with a 12/12 light cycle and provided rodent chow and water ad libitum. Mice were acclimated at least 1 week prior to study initiation (approximately 6 weeks old). Five (5) mice per group were predosed at 30 mg/kg PO with one of the following compounds: III-8, III-35, II-27, III-47, III-56, V-39, II-27, III-37, II-e-1, II-e-3, III-40, and V-58 (by oral gavage as a suspension in 0.5% methyl cellulose/0.25% Tween 80 in deionized water), 1 hour prior to LPS administration. LPS (E.Coli 055:B5 from Sigma, Cat #L2880) was diluted in 0.9% sterile saline (Webster Veterinary Supply, Cat #07-883-6734) to a final concentration of 30 μg/mL. Animals were administered 15 μg in 0.5 mL/mouse (approximately 0.5 mg/kg LPS) intraperitoneally. One hour post LPS administration, the mice were sacrificed via CO2 and whole blood was collected by cardiac puncture. Blood was placed in EDTA K2 tubes (Braintree Scientific, Cat #MT-1395), inverted 3 times and placed on wet ice until centrifugation at 4° C. Plasma was collected and stored on dry ice until stored at −80° C. until processing. TNFα levels were quantified using the “Mouse TNF-alpha Ultra-Sensitive Kit” from mesoscale.com (catalog number K152BHC-2) in conjunction with an MSD plate reader.

MK2 [4] = biological target: T1, MK2; test: MK2 modification assessment by whole protein mass spectrometry; format: binding; details: intact MK2, 60 min, 10-fold excess of compound to protein
In short: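 MK2 treated with compound is analysed intact by MALDI-TOF after C4 cleanup in sinapinic acid matrix. Percent modification is the centroid mass shift against control MK2 divided by compound mass.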

TNFα release [5] = test: IV mouse PD experiment (TNFα release after LPS); format: in vivo; details: CD-1 male mice, less than 10 mg/kg IV, 1 hour prior to LPS
Method: CD-1 male mice, approximately 5 weeks old were acquired from Charles River Laboratories. Animals were housed in ventilated cages with a 12/12 light cycle and provided rodent chow and water ad libitum. Mice were acclimated at least 1 week prior to study initiation (approximately 6 weeks old). Five (5) mice per group were predosed with one of the following compounds: II-14, III-32, III-8, III-4, II-27 and III-40 (intravenously by lateral tail vein), 1 hour prior to LPS administration. LPS (E.Coli 055:B5 from Sigma, Cat #L2880) was diluted in 0.9% sterile saline (Webster Veterinary Supply, Cat #07-883-6734) to a final concentration of 30 μg/mL. Animals were administered 15 μg in 0.5 mL/mouse (approximately 0.5 mg/kg LPS) intraperitoneally. One hour post LPS administration, the mice were sacrificed via CO2 and whole blood was collected by cardiac puncture. Blood was placed in EDTA K2 tubes (Braintree Scientific, Cat #MT-1395), inverted 3 times and placed on wet ice until centrifugation at 4° C. Plasma was collected and stored on dry ice until stored at −80° C. until processing. TNFα levels were quantified using the “Mouse TNF-alpha Ultra-Sensitive Kit” from mesoscale.com (catalog number K152BHC-2) in conjunction with an MSD plate reader.

T1 sequence (P49137 whole entry): as above

SMILES | EC50 (MK2 [1]) [nM] | IC50 [2] [nM] | inhibition in vivo at 30 mg/kg (TNFα release [3]) [%] | MK2 Mass Mod (MK2 [4]) | reduction in TNFα release compared to untreated control (TNFα release [5])
C=CC(=O)Nc1cccc2oc(-c3ccc4cc5n(c4c3)C3(CCC3)CNC5=O)nc12 [Compound V-39, N-(2-(1′-oxo-2′,3′-dihydro-1′H-spiro[cyclobutane-1,4′-pyrazino [1,2-a]indol]-7′-yl)benzo[d]oxazol-4-yl)acrylamide] | 101 to 500 | 101 to 500 | ≥ 81 | E (mass modification of ≥70%) | –
C=CC(=O)N1c2cc(NC(=O)c3ccc4cc5n(c4c3)C3(CCC3)CNC5=O)ccc2OCC1(C)C [Compound V-58, N-(4-acryloyl-3,3-dimethyl-3,4-dihydro-2H-benzo[b][1,4]oxazin-6-yl)-1′-oxo-2′,3′-dihydro-1′H-spiro[cyclobutane-1,4′-pyrazino [1,2-a]indole]-7′-carboxamide] | < 100 | < 100 | ≤ 20 | E (mass modification of ≥70%) | –
C=CC(=O)Nc1cc(-c2cc3c(cn2)CCc2c-3[nH]c3c2C(=O)NCC3)cnc1OCCOC [II-14, N-(2-(2-methoxyethoxy)-5-(7-oxo-6,7,8,9,10,11-hexahydro-5H-pyrido[3′,4′:4,5]pyrrolo[2,3-f]isoquinolin-2-yl)pyridin-3-yl)acrylamide] | < 100 | < 100 | – | E (mass modification of ≥70%) | greater than 90%
C=CC(=O)Nc1cccc(-c2cc3c(ccc4c5c([nH]c43)CCC5=O)cn2)c1 [II-e-1, N-(3-(7-oxo-7,8,9,10-tetrahydrocyclopenta[4,5]pyrrolo[2,3-f]isoquinolin-2-yl)phenyl)acrylamide] | 501 to 999 | 101 to 500 | ≤ 20 | E (mass modification of ≥70%) | –
C=CC(=O)Nc1cc(-c2cc3c(ccc4c5c([nH]c43)CCC5=O)cn2)ccc1F [II-e-3, N-(2-fluoro-5-(7-oxo-7,8,9,1-tetrahydrocyclopenta[4,5]pyrrolo[2,3-f]isoquinolin-2-yl)phenyl)acrylamide] | – | – | ≤ 20 | – | –
C=CC(=O)N1C[C@@H](C)Oc2ccc(NC(=O)c3ccc4sc5c(c4c3)NC[C@@H](C)NC5=O)cc21 [III-31, (R)—N—((R)-4-acryloyl-2-methyl-3,4-dihydro-2H-benzo[b][1,4]oxazin-6-yl)-3-methyl-5-oxo-2,3,4,5-tetrahydro-1H-benzo[4,5]thieno[3,2-e][1,4]diazepine-9-carboxamide] | < 100 | < 100 | – | E (mass modification of ≥70%) | –
C=CC(=O)Nc1cc(NC(=O)c2ccc3sc4c(c3c2)NC[C@@H](C)NC4=O)ccc1OCCN(C)C [III-35, (R)—N-(3-acrylamido-4-(2-(dimethylamino)ethoxy)phenyl)-3-methyl-5-oxo-2,3,4,5-tetrahydro-1H-benzo[4,5]thieno[3,2-e][1,4]diazepine-9-carboxamide] | 101 to 500 | < 100 | ≤ 20 | E (mass modification of ≥70%) | –
C=CC(=O)Nc1cc(-c2ccc3c(ccc4sc5c(c43)NC[C@@H](C)NC5=O)n2)ccc1C [III-37, (R)—N-(2-methyl-5-(10-methyl-8-oxo-9,10,11,12-tetrahydro-8H-[1,4]diazepino[5′,6′:4,5]thieno[3,2-f]quinolin-3-yl)phenyl)acrylamide] | < 100 | < 100 | ≤ 20 | E (mass modification of ≥70%) | –
C=CC(=O)N1CCC[C@@H](NC(=O)c2ccc3sc4c(c3c2)NC[C@@H](C)NC4=O)C1 [III-42] | > 1000 | < 100 | – | E (mass modification of ≥70%) | –
C=CS(=O)(=O)N1CCC[C@@H](NC(=O)c2ccc3sc4c(c3c2)NC[C@@H](C)NC4=O)C1 [III-44] | 101 to 500 | < 100 | – | E (mass modification of ≥70%) | –
C=CC(=O)NC1CCCC1NC(=O)c1ccc2sc3c(c2c1)NC[C@@H](C)NC3=O (stereo partly drawn) [III-47] | < 100 | < 100 | ≤ 20 | E (mass modification of ≥70%) | –
C=CC(=O)N1CCCC(NC(=O)c2ccc3sc4c(c3c2)NC[C@@H](C)NC4=O)C1 (stereo partly drawn) [III-51, (3R)—N-(1-acryloylpiperidin-3-yl)-3-methyl-5-oxo-2,3,4,5-tetrahydro-1H-benzo[4,5]thieno[3,2-e][1,4]diazepine-9-carboxamide] | < 100 | < 100 | – | E (mass modification of ≥70%) | –
C=CC(=O)N1C[C@H](C)Oc2ccc(NC(=O)c3ccc4sc5c(c4c3)NC[C@@H](C)NC5=O)cc21 [III-53, (R)—N—((S)-4-acryloyl-2-methyl-3,4-dihydro-2H-benzo[b][1,4]oxazin-6-yl)-3-methyl-5-oxo-2,3,4,5-tetrahydro-1H-benzo[4,5]thieno[3,2-e][1,4]diazepine-9-carboxamide] | > 1000 | < 100 | – | E (mass modification of ≥70%) | –
C=CC(=O)Nc1cc(-c2ccc3c(ccc4sc5c(c43)NC[C@@H](C)NC5=O)n2)ccc1Cl [III-54, (R)—N-(2-chloro-5-(10-methyl-8-oxo-9,10,11,12-tetrahydro-8H-[1,4]diazepino[5′,6′:4,5]thieno[3,2-f]quinolin-3-yl)phenyl)acrylamide] | 101 to 500 | < 100 | – | E (mass modification of ≥70%) | –
C=CC(=O)Nc1cc(NC(=O)c2ccc3sc4c(c3c2)NC[C@@H](C)NC4=O)ccc1C1CCN(C)CC1 [III-56, (R)—N-(3-acrylamido-4-(1-methylpiperidin-4-yl)phenyl)-3-methyl-5-oxo-2,3,4,5-tetrahydro-1H-benzo[4,5]thieno[3,2-e][1,4]diazepine-9-carboxamide] | – | – | ≤ 20 | – | –
C=CC(=O)Nc1cc(-c2ccc3c(ccc4sc5c(c43)NC[C@@H](C)NC5=O)n2)ccc1C1CCN(C)CC1 [III-58, (R)—N-(5-(10-methyl-8-oxo-9,10,11,12-tetrahydro-8H-[1,4]diazepino[5′,6′:4,5]thieno[3,2-f]quinolin-3-yl)-2-(1-methylpiperidin-4-yl)phenyl)acrylamide] | 101 to 500 | < 100 | – | E (mass modification of ≥70%) | –
C=CC(=O)Nc1cc(OCC)ccc1Nc1c(C)c(NC2CCCNC2)nc2ccnn12 (stereo not drawn) [IV-2, N-(5-ethoxy-2-((6-methyl-5-(piperidin-3-ylamino)pyrazolo [1,5-a]pyrimidin-7-yl)amino)phenyl)acrylamide] | > 1000 | 101 to 500 | – | E (mass modification of ≥70%) | –
C=CC(=O)Nc1cc(-c2nccc(-c3cc4n(c3)CCNC4=O)n2)ccc1OC [V-c-2, N-(2-methoxy-5-(4-(1-oxo-1,2,3,4-tetrahydropyrrolo[1,2-a]pyrazin-7-yl)pyrimidin-2-yl)phenyl)acrylamide] | > 1000 | < 100 | – | E (mass modification of ≥70%) | –
C=CC(=O)N1CCOc2ccc(-c3nccc(-c4cc5n(c4)CCNC5=O)n3)cc21 [V-c-3, 7-(2-(4-acryloyl-3,4-dihydro-2H-benzo[b][1,4]oxazin-6-yl)pyrimidin-4-yl)-3,4-dihydropyrrolo[1,2-a]pyrazin-1(2H)-one] | > 1000 | < 100 | – | E (mass modification of ≥70%) | –
